Laboratory results from publication PMC11822212, “High-throughput screening identifies Aurora kinase B as a critical therapeutic target for Merkel cell carcinoma” (Nature Communications, 2025).
Where two headings read alike, the source gives them in different places.

What was measured:
Test in all cases: qHTS cell viability (CellTiter-Glo, 72 h; primary and follow-up small molecule screen)
Type in all cases: cell-based, human
[1] = system: MCC13 cells (VN-MCC)
[2] = system: MCC26 cells (VN-MCC)
[3] = system: WAGA cells (VP-MCC)
[4] = system: MKL-2 cells (VP-MCC)
[5] = system: UISO cells (VN-MCC)
[6] = system: MKL-1 cells (VP-MCC)
[7] = follow-up screen, MCC13, replicate 1
[8] = follow-up screen, MCC13, replicate 2
[9] = follow-up screen, MCC13, replicate 3
[10] = follow-up screen, MCC26, replicate 1
[11] = follow-up screen, MCC26, replicate 2
[12] = follow-up screen, MCC26, replicate 3
[13] = follow-up screen, WAGA, replicate 1
[14] = follow-up screen, WAGA, replicate 2
[15] = follow-up screen, WAGA, replicate 3
[16] = follow-up screen, MKL-2, replicate 1
[17] = follow-up screen, MKL-2, replicate 2
[18] = follow-up screen, MKL-2, replicate 3
[19] = follow-up screen, UISO, replicate 1
[20] = follow-up screen, UISO, replicate 2
[21] = follow-up screen, UISO, replicate 3
[22] = follow-up screen, MKL-1, replicate 1
[23] = follow-up screen, MKL-1, replicate 2
[24] = follow-up screen, MKL-1, replicate 3

Compound	Area under the dose-response curve (AUC) MCC13 Replicate 1 [1, 7]	Area under the dose-response curve (AUC) MCC13 Replicate 2 [1, 8]	Area under the dose-response curve (AUC) MCC13 Replicate 3 [1, 9]	Area under the dose-response curve (AUC) MCC26 Replicate 1 [2, 10]	Area under the dose-response curve (AUC) MCC26 Replicate 2 [2, 11]	Area under the dose-response curve (AUC) MCC26 Replicate 3 [2, 12]	Area under the dose-response curve (AUC) WAGA Replicate 1 [3, 13]	Area under the dose-response curve (AUC) WAGA Replicate 2 [3, 14]	Area under the dose-response curve (AUC) WAGA Replicate 3 [3, 15]	Area under the dose-response curve (AUC) MKL-2 Replicate 1 [4, 16]	Area under the dose-response curve (AUC) MKL-2 Replicate 2 [4, 17]	Area under the dose-response curve (AUC) MKL-2 Replicate 3 [4, 18]	Area under the dose-response curve (AUC) UISO Replicate 1 [5, 19]	Area under the dose-response curve (AUC) UISO Replicate 2 [5, 20]	Area under the dose-response curve (AUC) UISO Replicate 3 [5, 21]	Area under the dose-response curve (AUC) MKL-1 Replicate 1 [6, 22]	Area under the dose-response curve (AUC) MKL-1 Replicate 2 [6, 23]	Area under the dose-response curve (AUC) MKL-1 Replicate 3 [6, 24]	Area under the dose-response curve (AUC) MCC13 Replicate 1 [1]	Area under the dose-response curve (AUC) MCC13 Replicate 2 [1]	also measured
CC[C@@]1(O)C(=O)OCc2c1cc1n(c2=O)Cc2cc3ccccc3nc2-1 [Camptothecin]	224.5	221.7	254.2	203.3	207.4	184.6	164.4	180.7	159.3	160.6	161.3	224.5	151.6	176.2	177.2	168.7	185.9	170.7			
CC[C@@]1(O)C(=O)OCc2c1cc1n(c2=O)Cc2cc3cc(O)ccc3nc2-1 [10-hydroxycamptothecin]																			287.3	291.9	Area under the dose-response curve (AUC) MCC13 Replicate 3 [1]: 277.2; Area under the dose-response curve (AUC) MCC26 Replicate 1 [2]: 260.5; Area under the dose-response curve (AUC) MCC26 Replicate 2 [2]: 244.0; Area under the dose-response curve (AUC) MCC26 Replicate 3 [2]: 250.0; Area under the dose-response curve (AUC) WAGA Replicate 1 [3]: 195.8; Area under the dose-response curve (AUC) WAGA Replicate 2 [3]: 197.2; Area under the dose-response curve (AUC) WAGA Replicate 3 [3]: 184.4; Area under the dose-response curve (AUC) MKL-2 Replicate 1 [4]: 184.7; Area under the dose-response curve (AUC) MKL-2 Replicate 2 [4]: 164.5; Area under the dose-response curve (AUC) MKL-2 Replicate 3 [4]: 246.0; Area under the dose-response curve (AUC) UISO Replicate 1 [5]: 187.9; Area under the dose-response curve (AUC) UISO Replicate 2 [5]: 199.3; Area under the dose-response curve (AUC) UISO Replicate 3 [5]: 183.4; Area under the dose-response curve (AUC) MKL-1 Replicate 1 [6]: 214.0; Area under the dose-response curve (AUC) MKL-1 Replicate 2 [6]: 217.0; Area under the dose-response curve (AUC) MKL-1 Replicate 3 [6]: 223.0
CN(C)c1ccc(C(=C2C=CC(=[N+](C)C)C=C2)c2ccccc2)cc1.CN(C)c1ccc(C(=C2C=CC(=[N+](C)C)C=C2)c2ccccc2)cc1.O=C(O)C(=O)O.O=C([O-])C(=O)O.O=C([O-])C(=O)O [Malachite green oxalate]																			284.7	297.6	Area under the dose-response curve (AUC) MCC13 Replicate 3 [1]: 312.3; Area under the dose-response curve (AUC) MCC26 Replicate 1 [2]: 302.0; Area under the dose-response curve (AUC) MCC26 Replicate 2 [2]: 333.8; Area under the dose-response curve (AUC) MCC26 Replicate 3 [2]: 303.0; Area under the dose-response curve (AUC) WAGA Replicate 1 [3]: 353.3; Area under the dose-response curve (AUC) WAGA Replicate 2 [3]: 347.4; Area under the dose-response curve (AUC) WAGA Replicate 3 [3]: 369.9; Area under the dose-response curve (AUC) MKL-2 Replicate 1 [4]: 272.5; Area under the dose-response curve (AUC) MKL-2 Replicate 2 [4]: 267.6; Area under the dose-response curve (AUC) MKL-2 Replicate 3 [4]: 282.8; Area under the dose-response curve (AUC) UISO Replicate 1 [5]: 285.6; Area under the dose-response curve (AUC) UISO Replicate 2 [5]: 315.1; Area under the dose-response curve (AUC) UISO Replicate 3 [5]: 271.1; Area under the dose-response curve (AUC) MKL-1 Replicate 1 [6]: 266.3; Area under the dose-response curve (AUC) MKL-1 Replicate 2 [6]: 258.0; Area under the dose-response curve (AUC) MKL-1 Replicate 3 [6]: 280.5
O=c1c(O)c(-c2ccccc2)oc2cc(O)cc(O)c12 [GALANGIN]	501.1	489.1	476.8	408.8	418.1	468.3	517.0	423.5	495.5	358.3	486.3	480.7	448.5	479.0	418.3	418.0	452.0	473.1			
CCCC[C@@H](C)/C=C(C)/C=C(\C)C(=O)NC1=C[C@@](O)(/C=C/C=C/C=C/C(=O)NC2=C(O)CCC2=O)[C@@H]2O[C@@H]2C1=O [manumycin A]																			464.3	477.8	Area under the dose-response curve (AUC) MCC13 Replicate 3 [1]: 420.7; Area under the dose-response curve (AUC) MCC26 Replicate 1 [2]: 416.4; Area under the dose-response curve (AUC) MCC26 Replicate 2 [2]: 409.7; Area under the dose-response curve (AUC) MCC26 Replicate 3 [2]: 443.4; Area under the dose-response curve (AUC) WAGA Replicate 1 [3]: 424.6; Area under the dose-response curve (AUC) WAGA Replicate 2 [3]: 379.9; Area under the dose-response curve (AUC) WAGA Replicate 3 [3]: 418.7; Area under the dose-response curve (AUC) MKL-2 Replicate 1 [4]: 385.8; Area under the dose-response curve (AUC) MKL-2 Replicate 2 [4]: 395.8; Area under the dose-response curve (AUC) MKL-2 Replicate 3 [4]: 389.6; Area under the dose-response curve (AUC) UISO Replicate 1 [5]: 429.0; Area under the dose-response curve (AUC) UISO Replicate 2 [5]: 434.7; Area under the dose-response curve (AUC) UISO Replicate 3 [5]: 408.1; Area under the dose-response curve (AUC) MKL-1 Replicate 1 [6]: 418.4; Area under the dose-response curve (AUC) MKL-1 Replicate 2 [6]: 432.7; Area under the dose-response curve (AUC) MKL-1 Replicate 3 [6]: 426.4
COc1ccc(OC)c(-c2nnc3ccc(-c4ccc(OC)c(O[C@@H]5CCOC5)c4)nn23)c1 [NCGC00168459-01]	471.2	476.6	471.3	450.8	439.4	478.6	480.8	429.3	424.9	463.7	433.6	459.9	435.8	424.6	430.2	460.8	464.3	463.4			
C[C@H]1O[C@@H](O[C@H]2[C@@H](O)C[C@H](O[C@H]3[C@@H](O)C[C@H](O[C@H]4CC[C@@]5(C)[C@H](CC[C@@H]6[C@@H]5CC[C@]5(C)[C@@H](C7=CC(=O)OC7)CC[C@]65O)C4)O[C@@H]3C)O[C@@H]2C)C[C@H](O)[C@@H]1O [Digitoxin]																			232.3	249.2	Area under the dose-response curve (AUC) MCC13 Replicate 3 [1]: 235.6; Area under the dose-response curve (AUC) MCC26 Replicate 1 [2]: 279.4; Area under the dose-response curve (AUC) MCC26 Replicate 2 [2]: 294.5; Area under the dose-response curve (AUC) MCC26 Replicate 3 [2]: 239.6; Area under the dose-response curve (AUC) WAGA Replicate 1 [3]: 276.0; Area under the dose-response curve (AUC) WAGA Replicate 2 [3]: 299.5; Area under the dose-response curve (AUC) WAGA Replicate 3 [3]: 286.7; Area under the dose-response curve (AUC) MKL-2 Replicate 1 [4]: 287.6; Area under the dose-response curve (AUC) MKL-2 Replicate 2 [4]: 297.9; Area under the dose-response curve (AUC) MKL-2 Replicate 3 [4]: 317.5; Area under the dose-response curve (AUC) UISO Replicate 1 [5]: 201.4; Area under the dose-response curve (AUC) UISO Replicate 2 [5]: 226.6; Area under the dose-response curve (AUC) UISO Replicate 3 [5]: 210.4; Area under the dose-response curve (AUC) MKL-1 Replicate 1 [6]: 269.2; Area under the dose-response curve (AUC) MKL-1 Replicate 2 [6]: 287.7; Area under the dose-response curve (AUC) MKL-1 Replicate 3 [6]: 299.6
CO[C@H]1/C=C/O[C@@]2(C)Oc3c(C)c(O)c4c(O)c(c(/C=N/N5CCN(C6CCCC6)CC5)c(O)c4c3C2=O)NC(=O)/C(C)=C\C=C\[C@H](C)[C@H](O)[C@@H](C)[C@@H](O)[C@@H](C)[C@H](OC(C)=O)[C@@H]1C [Rifapentine]	505.1	494.8	490.8	454.9	422.8	488.5	525.4	514.7	508.3	477.3	488.3	494.1	475.3	482.1	453.0	466.1	446.1	500.1			
